Experimental data published in patent US20250170112A1, “ADENOSINE LIGANDS FOR THE TREATMENT OF NEUROLOGICAL DISORDERS” (Lucy Therapeutics, Inc., priority 2022, published 2025).

Assays:
[1] = biological target: T1, human Adenosine A1 receptor (Homo sapiens, UniProt P30542); test: GTPγS scintillation proximity assay, agonist testing; format: biochemical; conditions: agonist activity; membrane extracts of CHO-K1 cells expressing recombinant human A1; read-out: A1AR EC50
T1 construct: host or cells: CHO-K1
T1 sequence (P30542 1-326): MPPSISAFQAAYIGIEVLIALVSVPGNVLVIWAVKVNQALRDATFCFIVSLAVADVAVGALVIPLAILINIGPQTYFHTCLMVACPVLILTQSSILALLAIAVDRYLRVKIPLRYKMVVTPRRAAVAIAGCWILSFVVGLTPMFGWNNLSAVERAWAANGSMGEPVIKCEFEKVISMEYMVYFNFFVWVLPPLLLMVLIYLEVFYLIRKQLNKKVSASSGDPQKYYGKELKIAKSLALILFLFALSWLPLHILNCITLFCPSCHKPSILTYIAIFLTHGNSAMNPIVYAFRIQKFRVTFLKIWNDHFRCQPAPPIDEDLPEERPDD
Protocol: (§1) SPA ^35S-GTPγS experiments were conducted with Epics Therapeutics membrane preparations. cAMP HTRF assays were conducted with recombinant cell lines.
• Assay buffer: 20 mM HEPES pH 7.4; 100 mM NaCl, 10 μg/mL saponin, MgCl2 at optimized concentration for the specific receptor. • Membranes: membrane extracts prepared from CHO-K1 cells expressing recombinant human Adenosine A1 receptor, thawed on ice, diluted in assay buffer and kept on ice. • GDP: diluted in assay buffer at the optimized concentration for the specific receptor Beads: PVT-WGA (Perkin Elmer, RPNQ001), diluted in assay buffer at 50 mg/mL (0.5 mg/10 μL) • GTPγ^35S: (Perkin Elmer, NEG030X), diluted in assay buffer for a final 0.1 nM assay concentration
Protocol for agonist testing: membranes are mixed with GDP (volume:volume). In parallel, GTPγ[^35S] is mixed with the beads (volume:volume) just before starting the reaction. The following reagents are successively added in the wells of an Optiplate (Perkin Elmer): 50 μL of test or reference ligand, 25 μL of the membranes:GDP mix, and 25 μL of the GTPγ[^35S]:beads mix. The plates are covered with a top seal, mixed on an orbital shaker for 2 min, and then incubated for 1 hour at room temperature. Then the plates are centrifuged for 10 min at 2000 rpm, incubated at room temperature and counted for 30 sec/well with a PerkinElmer TopCount™ reader. • Conditions for the GTPγS scintillation proximity assay are shown in Table 14.

human A2B = biological target: T2, human A2B (Homo sapiens, UniProt P29275); test: cAMP HTRF assay for Gs coupled receptor, agonist test; format: cell-based; conditions: agonist activity; HEK293 cells expressing recombinant human A2B; read-out: A2BAR EC50
T2 construct: expressed in transfected cells; host or cells: HEK293
T2 sequence (P29275 1-332): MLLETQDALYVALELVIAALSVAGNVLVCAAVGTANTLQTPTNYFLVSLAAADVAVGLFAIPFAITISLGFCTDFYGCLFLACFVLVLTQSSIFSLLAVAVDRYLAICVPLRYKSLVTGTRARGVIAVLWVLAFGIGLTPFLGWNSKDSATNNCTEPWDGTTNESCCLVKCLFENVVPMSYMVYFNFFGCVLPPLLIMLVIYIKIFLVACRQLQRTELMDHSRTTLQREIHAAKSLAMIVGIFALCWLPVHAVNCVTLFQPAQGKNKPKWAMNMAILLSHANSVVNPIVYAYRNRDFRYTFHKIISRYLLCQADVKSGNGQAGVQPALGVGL
Protocol: as §1
Dose response curves are performed in parallel with the reference compounds.
For agonist test (96 well): 12 μL of cells are mixed with 12 μL of the test compound at increasing concentrations and then incubated 30 min at room temperature. After addition of the lysis buffer containing cAMP-d2 and anti-cAMP cryptate detection reagents, plates are incubated 1 hour incubation at room temperature, and fluorescence ratios are measured according to the manufacturer specification, with the HTRF kit.

Compound | EC50 [1] [nM] | EC50 (human A2B) [nM]
N#Cc1c(N)nc(OCc2cccnc2)c(C#N)c1-c1ccc(OCCO)cc1 [Compound 159] | 41 | 3.3
CN(Cc1cccnc1)c1nc(N)c(C#N)c(-c2ccc(OCCO)cc2)c1C#N [Compound 160] | 130 | 56
N#Cc1c(N)nc(NCc2cccnc2)c(C#N)c1-c1ccc(OCCO)cc1 [Compound 161] | 368 | 159
N#Cc1c(N)nc(SCc2ccnnc2)c(C#N)c1-c1ccc(OCCO)cc1 [Compound 162] | 11 | 0.7
N#Cc1c(N)nc(SCc2cnccn2)c(C#N)c1-c1ccc(OCCO)cc1 [Compound 172] | 12 | 3.9
N#Cc1c(N)nc(SCc2ccncc2)c(C#N)c1-c1ccc(OCCO)cc1 [Compound 174] | 8.1 | 0.5
N#Cc1c(N)nc(SCc2cncnc2)c(C#N)c1-c1ccc(OCCO)cc1 [Compound 175] | 20 | 0.9
N#Cc1c(N)nc(SCc2ncccn2)c(C#N)c1-c1ccc(OCCO)cc1 [Compound 176] | 34 | 7.1
N#Cc1c(N)nc(SCCO)c(C#N)c1-c1ccc(OCCO)cc1 [Compound 177] | 57 | 18
N#Cc1c(N)nc(SCc2cccnn2)c(C#N)c1-c1ccc(OCCO)cc1 [Compound 178] | 1.5 | 0.06
N#Cc1c(N)nc(SCc2cccnc2)c(C#N)c1-c1ccc(OCCO)cc1 [Compound 183] | 2 | 0.1
COCCOc1ccc(-c2c(C#N)c(N)nc(CCc3cccnc3)c2C#N)cc1 [Compound 191] | 567 | > 10000
COCCOc1ccc(-c2c(C#N)c(N)nc(SCCO)c2C#N)cc1 [Compound 192] | 25 | > 10000
COCCOc1ccc(-c2c(C#N)c(N)nc(OCc3cccnc3)c2C#N)cc1 [Compound 193] | 49 | > 10000
COCCOc1ccc(-c2c(C#N)c(N)nc(SCc3ccnnc3)c2C#N)cc1 [Compound 194] | 71 | > 10000
COCCOc1ccc(-c2c(C#N)c(N)nc(SCc3cccnn3)c2C#N)cc1 [Compound 195] | 9.7 | > 10000
COCCOc1ccc(-c2c(C#N)c(N)nc(SCc3ccncc3)c2C#N)cc1 [Compound 197] | 52 | > 10000
COCCOc1ccc(-c2c(C#N)c(N)nc(SCc3cncnc3)c2C#N)cc1 [Compound 198] | 80 | > 10000
N#Cc1c(N)nc(SCc2c[nH]c3ccccc23)c(C#N)c1-c1ccc(OCCO)cc1 [Compound 206] | 981 | 495
N#Cc1c(N)nc(SCc2n[nH]c3ccccc23)c(C#N)c1-c1ccc(OCCO)cc1 [Compound 207] | 739 | 108
N#Cc1c(N)nc(SCc2nc3cc(Cl)ccc3s2)c(C#N)c1-c1ccc(OCCO)cc1 [Compound 208] | 500 | 98
COCCOc1ccc(-c2c(C#N)c(N)nc(SCc3cccc4c3CCO4)c2C#N)cc1 [Compound 212] | 7600 | > 10000
COCCOc1ccc(-c2c(C#N)c(N)nc(SCc3ccc4ccoc4c3)c2C#N)cc1 [Compound 213] | > 10000 | > 10000
COCCOc1ccc(-c2c(C#N)c(N)nc(SCc3cccc4[nH]ncc34)c2C#N)cc1 [Compound 214] | > 10000 | > 10000
COCCOc1ccc(-c2c(C#N)c(N)nc(SCc3cccc4[nH]cnc34)c2C#N)cc1 [Compound 215] | > 10000 | > 10000
COCCOc1ccc(-c2c(C#N)c(N)nc(SCc3cncc4[nH]ccc34)c2C#N)cc1 [Compound 216] | > 10000 | > 10000

Compound | EC50 [1] [nM] | EC50 (human A2B) [nM]
COCCOc1ccc(-c2c(C#N)c(N)nc(SCc3nccc4[nH]ccc34)c2C#N)cc1 [Compound 217] | > 10000 | > 10000
N#Cc1c(N)nc(SCC2CCOC2)c(C#N)c1-c1ccc(OC2CCOC2)cc1 (centres unmarked) [Compound 218] | 353 | > 10000
N#Cc1c(N)nc(SCC2COC2)c(C#N)c1-c1ccc(OC2CCOC2)cc1 (centres unmarked) [Compound 219] | 154 | > 10000
N#Cc1c(N)nc(SCCC(F)(F)F)c(C#N)c1-c1ccc(OC2CCOC2)cc1 (centres unmarked) [Compound 220] | > 10000 | > 10000
N#Cc1c(N)nc(SCc2cccc3[nH]ccc23)c(C#N)c1-c1ccc(OC2CCOC2)cc1 (centres unmarked) [Compound 221] | > 10000 | > 10000
CN(C)c1nc(SCC2COC2)c(C#N)c(-c2ccc(OC3COC3)cc2)c1C#N [Compound 222] | 32 | > 10000
N#Cc1c(N)nc(SCC2COC2)c(C#N)c1-c1ccc(OCCO)cc1 [Compound 223] | 1.5 | 401
N#Cc1c(N)nc(SC[C@H]2CCOC2)c(C#N)c1-c1ccc(OC2COC2)cc1 [Compound 225] | 0.75 | 118
CC1(CSc2nc(N)c(C#N)c(-c3ccc(OC4COC4)cc3)c2C#N)COC1 [Compound 226] | 22 | > 10000
N#Cc1c(N)nc(SCC2(F)COC2)c(C#N)c1-c1ccc(OC2COC2)cc1 [Compound 227] | 326 | > 10000
N#Cc1c(N)nc(SC[C@@H]2CCOC2)c(C#N)c1-c1ccc(OC2COC2)cc1 [Compound 228] | 1460 | 7550
N#Cc1c(N)nc(SCc2nccc3[nH]ccc23)c(C#N)c1-c1ccc(OCCO)cc1 [Compound 229] | > 10000 | 11
CNc1nc(SCC2COC2)c(C#N)c(-c2ccc(OC3COC3)cc2)c1C#N [Compound 230] | 5.2 | > 10000
COCCOc1ccc(-c2c(C#N)c(N)nc(SCc3ccncn3)c2C#N)cc1 [Compound 232] | 1.51 | > 10000
COCCOc1ccc(-c2c(C#N)c(SCc3cccnn3)nc(C3CC3)c2C#N)cc1 [Compound 233] | > 10000 | > 10000
N#Cc1c(N)nc(SCc2cccnn2)c(C#N)c1-c1ccc(OC2COC2)cc1 [Compound 234] | 1.22 | 2.02
N#Cc1c(N)nc(SCc2cnccn2)c(C#N)c1-c1ccc(OCCOC(F)F)cc1 [Compound 235] | 3280 | 1970
N#Cc1c(N)nc(SCc2cccnc2)c(C#N)c1-c1ccc(O[C@@H]2CCOC2)cc1 [Compound 236] | 164 | 49.3
N#Cc1c(N)nc(SCc2cccnn2)c(C#N)c1-c1ccc(OCCOC(F)F)cc1 [Compound 237] | 1.62 | 5360
COCCOc1ccc(-c2c(C#N)c(SCc3cccnn3)nc(N3CC(F)C3)c2C#N)cc1 [Compound 238] | > 10000 | > 10000
N#Cc1c(SCc2cccnn2)nc(C2CC2)c(C#N)c1-c1ccc(OCCOC(F)F)cc1 [Compound 239] | 840 | > 10000
N#Cc1c(N)nc(SCc2cccnc2)c(C#N)c1-c1ccc(O[C@H]2CCOC2)cc1 [Compound 240] | 0.903 | 0.335
N#Cc1c(SCc2cccnn2)nc(N2CC(F)C2)c(C#N)c1-c1ccc(OCCOC(F)F)cc1 [Compound 241] | 73.2 | > 10000
N#Cc1c(SCc2cccnn2)nc(C2CC2)c(C#N)c1-c1ccc(OCCOC2COC2)cc1 [Compound 242] | 905 | 749
COCCOc1ccc(-c2c(C#N)c(N)nc(S[C@H](C)c3ccccn3)c2C#N)cc1 [Compound 243] | > 10000 | 6450
COCCOc1ccc(-c2c(C#N)c(N)nc(S[C@@H](C)c3ccccn3)c2C#N)cc1 [Compound 244] | > 10000 | > 10000
